Results published in patent publication US20250127768A1, “THERAPEUTIC TARGETING OF INOSITOL PYROPHOSPHATE SYNTHESIS IN CANCER” (The Broad Institute, Inc., priority 2022, published 2025).

Columns and labels:
ovarian cancer cell line = assay: cell viability in ovarian cancer cell line with CRISPR guide sequences (FIG. 6B); format: cell-based; conditions: high doses; specificity to XPR1-dependent cell lines
From the text: (§1) FIG. 6A-FIG. 6B—IP6K inhibitors. FIG. 6A. Graph showing phosphate efflux in an ovarian cancer cell line treated with TNP or RBD_00. FIG. 6B. Graph showing cell viability in an ovarian cancer cell line treated with TNP or RBD_00 and the indicated CRISPR guide sequences.

[1] = tested on: XPR1-dependent cell lines (RMGI); assay: phosphate efflux in ovarian cancer cell line (FIG. 6A); format: cell-based; conditions: as compared to RBD (protein inhibitor of XPR1)
From the text: as §1

O=[N+]([O-])c1ccc(CNc2nc(NCc3cccc(C(F)(F)F)c3)nc3nc[nH]c23)cc1 [TNP, N2-(m-(trifluoromethyl)benzyl) N6-(p-nitrobenzyl)purine]
proliferation effects (ovarian cancer cell line): Proliferation effects were observed at high doses of TNP, but the effects were not specific to XPR1-dependent cell lines
phosphate efflux [1]: did not observe a decrease in phosphate efflux
